Measurements taken from ChEMBL document CHEMBL1201862, “PubChem BioAssay data set” (2004).
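Where inhibition never reached the appropriate level, the endpoint shown equals the highest concentration tested. Otherwise, values were interpolated linearly from a five-concentration, 48-hour dose response in 96-well plates. GI50 is the concentration that inhibits growth by half.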 The source made the active and inactive calls. No stated cut-off is given here; in the data, active = GI50 up to about 1.1 µM and inactive = higher.

Legend:
Assay in all cases: NCI tumour cell line growth inhibition, 48 h
786-0 = test system: 786-0
A498 = test system: A498
A549 = test system: A549
BT-549 = test system: BT-549
DLD-1 = test system: DLD-1
DU-145 = test system: DU-145
HCT-15 = test system: HCT-15
HOP-62 = test system: HOP-62
HOP-92 = test system: HOP-92
M14 = test system: M14
MDA-MB-231 = test system: MDA-MB-231
MDA-MB-435 = test system: MDA-MB-435
MDA-N = test system: MDA-N
Malme-3M = test system: Malme-3M
NCI-H522 = test system: NCI-H522
OVCAR-8 = test system: OVCAR-8
SF-539 = test system: SF-539
SK-MEL-2 = test system: SK-MEL-2
SNB-75 = test system: SNB-75
UACC-257 = test system: UACC-257

| SMILES | GI50 (786-0) | GI50 (A498) | GI50 (A549) | GI50 (BT-549) | GI50 (DLD-1) | GI50 (DU-145) | GI50 (HCT-15) | GI50 (HOP-62) | GI50 (HOP-92) | GI50 (M14) | GI50 (MDA-MB-231) | GI50 (MDA-MB-435) | GI50 (MDA-N) | GI50 (Malme-3M) | GI50 (NCI-H522) | GI50 (OVCAR-8) | GI50 (SF-539) | GI50 (SK-MEL-2) | GI50 (SNB-75) | GI50 (UACC-257) |
| --- | --- | --- | --- | --- | --- | --- | --- | --- | --- | --- | --- | --- | --- | --- | --- | --- | --- | --- | --- | --- |
| Clc1ccc(-c2c(C3=NCCCN3)nnn2-c2ccc(Cl)cc2)cc1 | 40.9 µM (inactive) | 29.4 µM (inactive) | > 76 µM (inactive) | > 55.1 µM (inactive) | > 68.9 µM (inactive) | > 91.2 µM (inactive) | 75.5 µM | 55.5 µM (inactive) | 22.8 µM (inactive) | 16.7 µM (inactive) | > 48.2 µM (inactive) | 19.2 µM (inactive) | 19.1 µM (inactive) | 17.8 µM (inactive) | 32.9 µM (inactive) | > 70.3 µM (inactive) | 31.4 µM (inactive) | 17.4 µM (inactive) | 29.8 µM (inactive) | 22.3 µM (inactive) |
| COc1cc2c(cc1OC)C(SC)C(=O)N(Cc1cccc(OC)c1OC)CC2 (stereo not given) | 3.85 µM (inactive) | 2.03 µM (inactive) | 1.73 µM (inactive) | 0.755 µM (active) | 2.01 µM (inactive) | 2.51 µM (inactive) | 0.718 µM | 2.75 µM (inactive) | 0.861 µM (active) | 2.28 µM (inactive) | 5.48 µM (inactive) | 0.353 µM (active) | 0.297 µM (active) | 3.15 µM (inactive) | 0.64 µM (active) | 4.29 µM (inactive) | 1.22 µM (inactive) | 1.26 µM (inactive) | 3.3 µM (inactive) | 2.95 µM (inactive) |
| COc1ccc2c(c1)[n+]([O-])c(-c1ccccc1Cl)c(N)[n+]2[O-] | > 100 µM (inactive) | > 100 µM (inactive) | 94.2 µM (inactive) | – | > 100 µM (inactive) | – | 39.9 µM | > 100 µM (inactive) | > 100 µM (inactive) | 73.1 µM (inactive) | – | – | – | > 100 µM (inactive) | 16.9 µM (inactive) | > 100 µM (inactive) | > 100 µM (inactive) | > 100 µM (inactive) | 75 µM (inactive) | 36.6 µM (inactive) |
| O=[N+]([O-])c1ccc(-n2nnc(C3=NCCN3)c2-c2ccc(Cl)cc2)cc1 | > 100 µM (inactive) | > 100 µM (inactive) | > 100 µM (inactive) | – | > 100 µM (inactive) | – | > 100 µM | > 100 µM (inactive) | > 100 µM (inactive) | > 100 µM (inactive) | – | – | – | > 100 µM (inactive) | > 100 µM (inactive) | > 100 µM (inactive) | > 100 µM (inactive) | > 100 µM (inactive) | 83.6 µM (inactive) | > 100 µM (inactive) |
